Tests used:
Assay type in all cases: in vivo
[1] = system: Surinam grass (Brachiaria decumbens); test: Test B postemergence
Method in brief: (§1)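 Visual injury scores, 0 = no effect to 100 = complete control, assigned against controls after 13 to 15 days in the greenhouse. Compounds formulated in non-phytotoxic solvent plus surfactant and applied to soil after planting (pre) or onto foliage of 1- to 4-leaf plants (post).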

[2] = system: barnyardgrass (Echinochloa crus-galli); test: Test B postemergence
Method in brief: as §1

[3] = system: blackgrass (Alopecurus myosuroides); test: Test B postemergence
Method in brief: as §1

[4] = system: cocklebur (Xanthium strumarium); test: Test B postemergence
Method in brief: as §1

corn (Zea mays) [5] = test: Test B postemergence
Method in brief: as §1

[6] = system: crabgrass (Digitaria sanguinalis); test: Test B postemergence
Method in brief: as §1

[7] = system: giant foxtail (Setaria faberii); test: Test B postemergence
Method in brief: as §1

[8] = system: lambsquarters (Chenopodium album); test: Test B postemergence
Method in brief: as §1

[9] = system: morning glory (Ipomoea hederacea); test: Test B postemergence
Method in brief: as §1

[10] = system: pigweed (Amaranthus retroflexus); test: Test B postemergence
Method in brief: as §1

[11] = system: velvetleaf (Abutilon theophrasti); test: Test B postemergence
Method in brief: as §1

[12] = system: wheat (Triticum aestivum); test: Test B postemergence
Method in brief: as §1

wild oat (Avena fatua) = test: Test B postemergence
Method in brief: as §1

[13] = system: Surinam grass (Brachiaria decumbens); test: Test B preemergence
Method in brief: as §1

[14] = system: barnyardgrass (Echinochloa crus-galli); test: Test B preemergence
Method in brief: as §1

[15] = system: cocklebur (Xanthium strumarium); test: Test B preemergence
Method in brief: as §1

corn (Zea mays) [16] = test: Test B preemergence
Method in brief: as §1

[17] = system: crabgrass (Digitaria sanguinalis); test: Test B preemergence
Method in brief: as §1

[18] = system: giant foxtail (Setaria faberii); test: Test B preemergence
Method in brief: as §1

[19] = system: lambsquarters (Chenopodium album); test: Test B preemergence
Method in brief: as §1

[20] = system: morning glory (Ipomoea hederacea); test: Test B preemergence
Method in brief: as §1

[21] = system: pigweed (Amaranthus retroflexus); test: Test B preemergence
Method in brief: as §1

rice (Oryza saliva) = test: Test B preemergence
Method in brief: as §1

[22] = system: velvetleaf (Abutilon theophrasti); test: Test B preemergence
Method in brief: as §1

[23] = system: barnyardgrass (Echinochloa crus-galli); test: Test C flooded paddy test; details: for Barnyardgrass plant response rating: Flooded Paddy, scale 0 to 100, 0 no effect, 100 complete control; for Plant response rating, Barnyardgrass / Plant response rating (scale 0 to 100), Barnyardgrass: flooded paddy test; for Plant response rating, Barnyardgrass: scale 0 to 100 (0 no effect, 100 complete control); for Plant response rating (scale 0 to 100), Barnyardgrass: visually evaluated after 12 to 14 days, 0 = no effect, 100 = complete control
Method in brief: (§2)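 Each species was cultivated to 2 leaves in flooded paddy pots, then treated. After a greenhouse period of 12–14 days, the plants were scored visually relative to controls from 0 (no effect) to 100 (complete control).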

[24] = system: duck salad (Heteranthera limosa); test: Test C flooded paddy test; details: for Ducksalad plant response rating: Flooded Paddy, scale 0 to 100, 0 no effect, 100 complete control; for Plant response rating, Ducksalad / Plant response rating (scale 0 to 100), Ducksalad: flooded paddy test; for Plant response rating, Ducksalad: scale 0 to 100 (0 no effect, 100 complete control); for Plant response rating (scale 0 to 100), Ducksalad: visually evaluated after 12 to 14 days, 0 = no effect, 100 = complete control
Method in brief: as §2

Sunflower = test: Test C preemergence; details: Rate 250 g/ha, visual evaluation after 12 to 14 days
[25] = Rate 500 g/ha, scale 0 to 100, 0 is no effect, 100 is complete control, 13 to 15 days
[26] = Rate 125 g/ha, scale 0 (no effect) to 100 (complete control), 13 to 15 days
[27] = Preemergence, Rate 500 g/ha, scale 0 to 100, 0 no effect, 100 complete control
[28] = preemergence, Rate 125 g/ha, scale 0 to 100, 0 no effect, 100 complete control
[29] = Rate 125 g/ha, scale 0 to 100, 0 no effect, 100 complete control
[30] = preemergence, Rate 125 g/ha, scale of 0 to 100 where 0 is no effect and 100 is complete control, 13 to 15 days
[31] = Rate 500 g/ha, scale 0 (no effect) to 100 (complete control), 13 to 15 days

CC(C)(C)c1ccn(C2CCN(c3cccc(C(F)(F)F)c3)C2=S)n1 (stereo not shown) [Compound 22]
Plant response rating, Surinam grass [1, 25]: 20
Plant response rating, Barnyardgrass [2, 26]: 0
Plant response rating, Barnyardgrass [2, 25]: 80
Plant response rating, Blackgrass [3, 26]: 0
Plant response rating, Blackgrass [3, 25]: 0
Plant response rating, Cocklebur [4, 26]: 20
Plant response rating, Cocklebur [4, 25]: 20
Plant response rating, Corn (corn (Zea mays) [5]; [26]): 0
Plant response rating, Corn (corn (Zea mays) [5]; [25]): 0
Plant response rating, Crabgrass [6, 26]: 40
Plant response rating, Crabgrass [6, 25]: 40
Plant response rating, Foxtail, Giant [7, 26]: 0
Plant response rating, Foxtail, Giant [7, 25]: 0
Plant response rating, Lambsquarters [8, 26]: 90
Plant response rating, Lambsquarters [8, 25]: 90
Plant response rating, Morningglory [9, 26]: 30
Plant response rating, Morningglory [9, 25]: 30
Plant response rating, Pigweed [10, 26]: 80
Plant response rating, Pigweed [10, 25]: 90
Plant response rating, Velvetleaf [11, 26]: 20
Plant response rating, Velvetleaf [11, 25]: 30
Plant response rating, Wheat [12, 26]: 0
Plant response rating, Wheat [12, 25]: 0
Plant response rating, Wild Oat (wild oat (Avena fatua); [26]): 0
Plant response rating, Wild Oat (wild oat (Avena fatua); [25]): 0
Plant response rating, Surinam grass [13, 27]: 50
Plant response rating, Surinam grass [13, 28]: 30
Plant response rating, Barnyardgrass [14, 27]: 80
Plant response rating, Barnyardgrass [14, 28]: 0
Plant response rating, Cocklebur [15, 27]: 0
Plant response rating, Cocklebur [15, 28]: 0
Plant response rating, Corn (corn (Zea mays) [16]; [27]): 0
Plant response rating, Corn (corn (Zea mays) [16]; [28]): 0
Plant response rating, Crabgrass [17, 27]: 100
Plant response rating, Crabgrass [17, 28]: 0
Plant response rating, Foxtail, Giant [18, 27]: 100
Plant response rating, Foxtail, Giant [18, 28]: 30
Plant response rating, Lambsquarters [19, 27]: 100
Plant response rating, Lambsquarters [19, 28]: 100
Plant response rating, Morningglory [20, 27]: 0
Plant response rating, Morningglory [20, 28]: 0
Plant response rating, Pigweed [21, 27]: 100
Plant response rating, Pigweed [21, 28]: 90
Plant response rating, Rice (rice (Oryza saliva); [27]): 0
Plant response rating, Rice (rice (Oryza saliva); [28]): 0
Plant response rating, Velvetleaf [22, 27]: 0
Plant response rating, Velvetleaf [22, 28]: 0
Barnyardgrass plant response rating ([23]; Rate 250 g/ha): 100
Barnyardgrass plant response rating ([23]; Rate 500 g/ha): 100
Plant response rating, Barnyardgrass ([23]; Rate 62 g/ha): 40
Plant response rating, Barnyardgrass ([23]; Rate 125 g/ha): 80
Ducksalad plant response rating ([24]; Rate 250 g/ha): 80
Ducksalad plant response rating ([24]; Rate 500 g/ha): 100
Plant response rating, Ducksalad ([24]; Rate 62 g/ha): 50
Plant response rating, Ducksalad ([24]; Rate 125 g/ha): 80
Plant response rating (0 to 100), Sunflower (Sunflower): 0

CCCC(C)c1ccn(C2OCN(c3cccc(OC(F)F)c3)C2=O)n1 (stereo not shown) [Compound 132]
Plant response rating, Surinam grass [1, 29]: 0
Plant response rating, Surinam grass [1, 25]: 0
Plant response rating, Barnyardgrass [2, 29]: 0
Plant response rating, Barnyardgrass [2, 25]: 30
Plant response rating, Blackgrass [3, 29]: 0
Plant response rating, Blackgrass [3, 25]: 0
Plant response rating, Cocklebur [4, 29]: 0
Plant response rating, Cocklebur [4, 25]: 0
Plant response rating, Corn (corn (Zea mays) [5]; [29]): 0
Plant response rating, Corn (corn (Zea mays) [5]; [25]): 0
Plant response rating, Crabgrass [6, 29]: 0
Plant response rating, Foxtail, Giant [7, 29]: 0
Plant response rating, Lambsquarters [8, 29]: 70
Plant response rating, Morningglory [9, 29]: 0
Plant response rating, Pigweed [10, 29]: 0
Plant response rating, Velvetleaf [11, 29]: 0
Plant response rating, Wheat [12, 29]: 0
Plant response rating, Wild Oat (wild oat (Avena fatua); [29]): 0
Plant response rating, Surinam grass [13, 27]: 100
Plant response rating, Surinam grass [13, 30]: 80
Plant response rating, Barnyardgrass [14, 27]: 100
Plant response rating, Barnyardgrass [14, 30]: 100
Plant response rating, Cocklebur [15, 27]: 30
Plant response rating, Cocklebur [15, 30]: 0
Plant response rating, Corn (corn (Zea mays) [16]; [27]): 0
Plant response rating, Corn (corn (Zea mays) [16]; [30]): 0
Plant response rating, Crabgrass [17, 27]: 100
Plant response rating, Crabgrass [17, 30]: 100
Plant response rating, Foxtail, Giant [18, 27]: 100
Plant response rating, Foxtail, Giant [18, 30]: 100
Plant response rating, Lambsquarters [19, 27]: 100
Plant response rating, Lambsquarters [19, 30]: 100
Plant response rating, Morningglory [20, 27]: 0
Plant response rating, Morningglory [20, 30]: 0
Plant response rating, Pigweed [21, 27]: 100
Plant response rating, Pigweed [21, 30]: 70
Plant response rating, Rice (rice (Oryza saliva); [27]): 50
Plant response rating, Rice (rice (Oryza saliva); [30]): 0
Plant response rating, Velvetleaf [22, 27]: 30
Plant response rating, Velvetleaf [22, 30]: 0
Barnyardgrass plant response rating ([23]; Rate 500 g/ha): 100
Plant response rating, Barnyardgrass ([23]; Rate 125 g/ha): 70
Plant response rating, Barnyardgrass ([23]; Rate 250 g/ha): 100
Plant response rating (scale 0 to 100), Barnyardgrass ([23]; Rate 62 g/ha): 40
Ducksalad plant response rating ([24]; Rate 500 g/ha): 80
Plant response rating, Ducksalad ([24]; Rate 125 g/ha): 20
Plant response rating, Ducksalad ([24]; Rate 250 g/ha): 40
Plant response rating (scale 0 to 100), Ducksalad ([24]; Rate 62 g/ha): 0

Cc1cc(C)nc(N2CCC(n3ccc(C(C)(C)C)n3)C2=O)c1 (stereo not shown) [Compound 138]
Plant response rating, Surinam grass [1, 29]: 0
Plant response rating, Surinam grass [1, 31]: 0
Plant response rating, Barnyardgrass [2, 29]: 0
Plant response rating, Barnyardgrass [2, 31]: 0
Plant response rating, Blackgrass [3, 29]: 0
Plant response rating, Blackgrass [3, 31]: 0
Plant response rating, Cocklebur [4, 29]: 0
Plant response rating, Cocklebur [4, 31]: 0
Plant response rating, Corn (corn (Zea mays) [5]; [29]): 0
Plant response rating, Corn (corn (Zea mays) [5]; [31]): 0
Plant response rating, Crabgrass [6, 29]: 0
Plant response rating, Crabgrass [6, 31]: 0
Plant response rating, Foxtail, Giant [7, 29]: 0
Plant response rating, Foxtail, Giant [7, 31]: 0
Plant response rating, Lambsquarters [8, 29]: 0
Plant response rating, Lambsquarters [8, 31]: 0
Plant response rating, Morningglory [9, 29]: 10
Plant response rating, Morningglory [9, 31]: 30
Plant response rating, Pigweed [10, 29]: 0
Plant response rating, Pigweed [10, 31]: 30
Plant response rating, Velvetleaf [11, 29]: 0
Plant response rating, Velvetleaf [11, 31]: 0
Plant response rating, Wheat [12, 29]: 0
Plant response rating, Wheat [12, 31]: 0
Plant response rating, Wild Oat (wild oat (Avena fatua); [29]): 0
Plant response rating, Wild Oat (wild oat (Avena fatua); [31]): 0
Plant response rating, Surinam grass [13, 27]: 100
Plant response rating, Surinam grass [13, 30]: 70
Plant response rating, Barnyardgrass [14, 27]: 100
Plant response rating, Barnyardgrass [14, 30]: 0
Plant response rating, Cocklebur [15, 27]: 100
Plant response rating, Cocklebur [15, 30]: 0
Plant response rating, Corn (corn (Zea mays) [16]; [27]): 20
Plant response rating, Corn (corn (Zea mays) [16]; [30]): 0
Plant response rating, Crabgrass [17, 27]: 100
Plant response rating, Crabgrass [17, 30]: 100
Plant response rating, Foxtail, Giant [18, 27]: 100
Plant response rating, Foxtail, Giant [18, 30]: 80
Plant response rating, Lambsquarters [19, 27]: 100
Plant response rating, Lambsquarters [19, 30]: 100
Plant response rating, Morningglory [20, 27]: 100
Plant response rating, Morningglory [20, 30]: 90
Plant response rating, Pigweed [21, 27]: 100
Plant response rating, Pigweed [21, 30]: 100
Plant response rating, Rice (rice (Oryza saliva); [27]): 100
Plant response rating, Rice (rice (Oryza saliva); [30]): 0
Plant response rating, Velvetleaf [22, 27]: 0
Plant response rating, Velvetleaf [22, 30]: 0
Barnyardgrass plant response rating ([23]; Rate 500 g/ha): 100
Plant response rating, Barnyardgrass ([23]; Rate 125 g/ha): 40
Plant response rating, Barnyardgrass ([23]; Rate 250 g/ha): 100
Plant response rating (scale 0 to 100), Barnyardgrass ([23]; Rate 62 g/ha): 0
Ducksalad plant response rating ([24]; Rate 500 g/ha): 100
Plant response rating, Ducksalad ([24]; Rate 125 g/ha): 20
Plant response rating, Ducksalad ([24]; Rate 250 g/ha): 60
Plant response rating (scale 0 to 100), Ducksalad ([24]; Rate 62 g/ha): 0
